This is an account of results in patent US7504517B2, “Kv1.5 potassium channel inhibitors” (Wyeth, priority 2006, dated 2009).

SMILES strings stand for the structures. Where a name gives a salt, the structure may show the parent alone.

T1 sequence (P22460 whole entry): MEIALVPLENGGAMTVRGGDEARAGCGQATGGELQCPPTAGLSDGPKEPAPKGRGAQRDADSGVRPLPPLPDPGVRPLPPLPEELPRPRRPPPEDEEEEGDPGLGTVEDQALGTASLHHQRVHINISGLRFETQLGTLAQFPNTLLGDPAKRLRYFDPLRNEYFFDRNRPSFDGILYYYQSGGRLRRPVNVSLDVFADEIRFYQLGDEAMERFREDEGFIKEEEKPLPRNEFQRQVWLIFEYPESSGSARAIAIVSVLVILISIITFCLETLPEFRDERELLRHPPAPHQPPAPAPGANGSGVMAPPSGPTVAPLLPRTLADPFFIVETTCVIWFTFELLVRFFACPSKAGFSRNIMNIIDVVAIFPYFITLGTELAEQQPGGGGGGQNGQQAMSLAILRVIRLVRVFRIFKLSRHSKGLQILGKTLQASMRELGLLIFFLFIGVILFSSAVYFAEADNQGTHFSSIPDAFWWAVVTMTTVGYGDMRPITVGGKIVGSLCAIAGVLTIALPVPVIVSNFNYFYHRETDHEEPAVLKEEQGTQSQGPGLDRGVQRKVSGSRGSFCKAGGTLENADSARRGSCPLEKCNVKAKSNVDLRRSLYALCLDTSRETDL

This test concerns the target T1, Kv1.5 (Homo sapiens, UniProt P22460).
T1 construct: expressed in transfected cells; host or cells: HEK or LTK- cells
Nature of the test: Kv1.5 Patch Clamp EP. Format: cell-based. As to conditions: 1.0 μM, single point; whole cell patch clamp, Kv1.5 stably over expressed in HEK or LTK- cells. On the procedure:
The external solution is standard Tyrodes solution. […] Inhibition was measured at the end of the 1 second pulses and expressed relative to controls. Initial Kv1.5 inhibition is estimated by single point determinations done at 1 μM.
(Patch clamp records ionic current or voltage across a cell membrane.)
Take `COc1ccc(CCN2C(=O)N(NCC3CC3)CC2c2ccc(C)c(C)c2)cc1` (stereo not drawn) [Compound 86, 1-(Cyclopropylmethylamino)-3-[2-(4-methoxyphenyl)ethyl]-4-(3,4-dimethylphenyl)-2-imidazolidinone]: 1 µM produced 20% inhibition.

`COc1ccc(CCN2C(=O)N(NS(C)(=O)=O)CC2c2ccc3c(c2)OCCO3)cc1OC` (stereo not drawn) [Compound 144, N-{4-(2,3-dihydro-1,4-benzodioxin-6-yl)-3-[2-(3,4-dimethoxyphenyl)ethyl]-2-oxoimidazolidin-1-yl}methanesulfonamide] registered an inhibition at 1 µM of 16%.

Compound `COc1ccc(CCN2C(=O)N(N3CCNCC3)CC2c2ccc(C(C)(C)C)cc2)cc1` (stereo not drawn) [Compound 112, 4-(4-tert-butylphenyl)-3-[2-(4-methoxyphenyl)ethyl]-1-piperazin-1-ylimidazolidin-2-one] gave an inhibition at 1 µM of 8%.

The compound `COc1ccc(CCN2C(=O)N(NS(C)(=O)=O)CC2c2ccc3c(c2)OC(F)(F)O3)cc1` (stereo not drawn) [Compound 16, 1-(Methylsulfonylamino)-3-[2-(4-methoxyphenyl)ethyl]-4-(2,2-difluorobenzo-[1,3]dioxol-5-yl)-2-imidazolidinone] returned an inhibition at 1 µM of 48%.

Compound `COc1ccc(CCN2C(=O)N(NS(C)(=O)=O)CC2c2ccc(F)cc2)cc1` (stereo not drawn) [Compound 137, N-{4-(4-fluorophenyl)-3-[2-(4-methoxyphenyl)ethyl]-2-oxoimidazolidin-1-yl}methanesulfonamide] yielded an inhibition at 1 µM of 4%.

Regarding `COc1ccc(CCN2C(=O)N(N)CC2c2ccc(OC(F)F)cc2)cc1` (stereo not drawn) [Compound 5, 1-Amino-3-[2-(4-methoxyphenyl)ethyl]-4-(4-difluoromethoxyphenyl)-2-imidazolidinone 4-methylbenzenesulfonic acid salt], the inhibition at 1 µM was 36%.

`COc1ccc(CCN2C(=O)N(NS(=O)(=O)CCN3CCOCC3)CC2c2ccc3c(c2)OCCO3)cc1` (stereo not drawn) [Compound 125, N-{4-(2,3-dihydro-1,4-benzodioxin-6-yl)-3-[2-(4-methoxyphenyl)ethyl]-2-oxoimidazolidin-1-yl}-2-morpholin-4-ylethanesulfonamide] came in with an inhibition at 1 µM of 42%.

On to `COc1ccc(CCN2C(=O)N(NS(=O)(=O)CC(=O)NCC3CC3)C[C@H]2c2ccc(OC)cc2)cc1` [Compound 136, N-(cyclopropylmethyl)-2-({(4R)-4-(4-methoxyphenyl)-3-[2-(4-methoxyphenyl)ethyl]-2-oxoimidazolidin-1-yl}sulfamoyl)acetamide], for which at 1 µM the inhibition was 44%.

For the compound `COc1ccc(CCN2C(=O)N(N)CC2Cc2ccc(F)cc2)cc1` (stereo not drawn) [Compound 129, 1-amino-4-(4-fluorobenzyl)-3-[2-(4-methoxyphenyl)ethyl]imidazolidin-2-one], the inhibition at 1 µM was 4%.

`COc1ccc(CCN2C(=O)N(NS(C)(=O)=O)CC2c2ccc(OC)nc2)cc1` (stereo not drawn) [Compound 149, N-{3-[2-(4-methoxyphenyl)ethyl]-4-(6-methoxypyridin-3-yl)-2-oxoimidazolidin-1-yl}methanesulfonamide] registered an inhibition at 1 µM of 9%.

Turning to `COc1ccc(CCN2C(=O)N(NS(C)(=O)=O)CC2c2ccc3c(c2)OCO3)cc1` (stereo not drawn) [Compound 15, 1-(Methylsulfonylamino)-3-[2-(4-methoxyphenyl)ethyl]-4-(benzo[1,3]dioxol-5-yl)-2-imidazolidinone], the inhibition at 1 µM was 46%.

In turn, `COc1ccc(C2CN(N)C(=O)N2CCc2ccc(OC(F)F)cc2)cc1` (stereo not drawn) [Compound 154, 1-amino-3-{2-[4-(difluoromethoxy)phenyl]ethyl}-4-(4-methoxyphenyl)imidazolidin-2-one] showed an inhibition at 1 µM of 7%.

For `COc1ccc(CCN2C(=O)N(N3CCCS3(=O)=O)CC2c2ccc(C3CC3)cc2)cc1` (stereo not drawn) [Compound 124, 4-(4-cyclopropylphenyl)-1-(1,1-dioxidoisothiazolidin-2-yl)-3-[2-(4-methoxyphenyl)ethyl]imidazolidin-2-one], the inhibition at 1 µM was 38%.

Take `COc1ccc(CCN2C(=O)N(NS(C)(=O)=O)CC2C2(c3ccccc3)CC2)cc1` (stereo not drawn) [Compound 140, N-{3-[2-(4-methoxyphenyl)ethyl]-2-oxo-4-(1-phenylcyclopropyl)imidazolidin-1-yl}methanesulfonamide]: the inhibition at 1 µM was 6%.

In turn, `COc1ccc(CCN2C(=O)N(NS(=O)(=O)CC(N)=O)CC2c2ccc(OC)cc2)cc1` (stereo not drawn) [Compound 115, 2-({4-(4-methoxyphenyl)-3-[2-(4-methoxyphenyl)ethyl]-2-oxoimidazolidin-1-yl}sulfamoyl)acetamide] showed an inhibition at 1 µM of 5%.

`COc1ccc(C2CN(NS(C)(=O)=O)C(=O)N2CCc2ccc(OC(F)(F)F)cc2)cc1` (stereo not drawn) [Compound 152, N-[4-(4-methoxyphenyl)-2-oxo-3-{2-[4-(trifluoromethoxy)phenyl]ethyl}imidazolidin-1-yl]methanesulfonamide] gave an inhibition at 1 µM of 16%.

`COc1ccc(CCN2C(=O)N(N3CCN(C(N)=O)CC3)CC2c2ccc(C(C)(C)C)cc2)cc1` (stereo not drawn) [Compound 150, 4-{4-(4-tert-butylphenyl)-3-[2-(4-methoxyphenyl)ethyl]-2-oxoimidazolidin-1-yl}piperazine-1-carboxamide]: the inhibition at 1 µM stood at 17%.

In the case of `COc1ccc(CN2C(=O)N(NS(C)(=O)=O)CC2c2ccc(C3CC3)cc2)cc1` (stereo not drawn) [Compound 19, 1-(Methylsulfonylamino)-3-[(4-methoxyphenyl)methyl]-4-(4-cyclopropylphenyl)-2-imidazolidinone], the inhibition at 1 µM stood at 27%.

Turning to `CC(C)(C)c1ccc(C2CN(NS(C)(=O)=O)C(=O)N2CCc2ccc(OCCN3CCOCC3)cc2)cc1` (stereo not drawn) [Compound 169, N-[4-(4-tert-butylphenyl)-3-{2-[4-(2-morpholin-4-ylethoxy)phenyl]ethyl}-2-oxoimidazolidin-1-yl]methanesulfonamide], 1 µM produced 16% inhibition.

`CCN(CC)c1ccc(CNN2CC(c3ccc(C(C)(C)C)cc3)N(CCc3ccc(OC)cc3)C2=O)cc1` (stereo not drawn) [Compound 123, 4-(4-tert-butylphenyl)-1-{[4-(diethylamino)benzyl]amino}-3-[2-(4-methoxyphenyl)ethyl]imidazolidin-2-one] returned an inhibition at 1 µM of 25%.

In turn, `COc1ccc(CCN2C(=O)N(NS(=O)(=O)CS(C)(=O)=O)CC2c2ccc(OC)cc2)cc1` (stereo not drawn) [Compound 153, N-{4-(4-methoxyphenyl)-3-[2-(4-methoxyphenyl)ethyl]-2-oxoimidazolidin-1-yl}-1-(methylsulfonyl)methanesulfonamide] came in with an inhibition at 1 µM of 12%.

`COc1ccc(CCN2C(=O)N(NCc3ccncc3)CC2c2ccc(C(C)(C)C)cc2)cc1` (stereo not drawn) [Compound 95, 1-[(Pyridin-4-ylmethyl)amino]-3-[2-(4-methoxyphenyl)ethyl]-4-(4-(tert-butyl)phenyl)-2-imidazolidinone] showed an inhibition at 1 µM of 43%.

On to `COc1ccc(CCN2C(=O)N(NS(N)(=O)=O)CC2c2ccc(OC)cc2)cc1` (stereo not drawn) [Compound 167, N-{4-(4-methoxyphenyl)-3-[2-(4-methoxyphenyl)ethyl]-2-oxoimidazolidin-1-yl}sulfamide], for which 1 µM produced 36% inhibition.

`COc1ccc(CCN2C(=O)N(NC(=O)c3cnccn3)CC2c2ccc(C(C)(C)C)cc2)cc1` (stereo not drawn) [Compound 147, N-{4-(4-tert-butylphenyl)-3-[2-(4-methoxyphenyl)ethyl]-2-oxoimidazolidin-1-yl}pyrazine-2-carboxamide] gave an inhibition at 1 µM of 42%.

A word on the inhibition: it is the change of the read-out against control, counted positive when it falls. A low value points to little suppression.
